What was measured:
[1] = Plasma pharmacokinetics of oxyclozanide after topical Composition K in dogs (Example 5); format: in vivo, dog
Procedure: The cutaneous route (topical administration) was the route of administration for composition K on dogs. Composition K was applied evenly along the backbone starting from the base of the tail to the back of the neck.
For all animals of group A, a blood sample of around 4 ml was collected from the jugular vein using tubes containing lithium heparin at the following times (with tolerance of 10%): D-3a, D0a+1h, D0a+6h, D0a+12h, D0a+16h, D0a+24h, D0a+32h, D0a+48h, D3a, D5a et D7a.
Centrifugation (around 3500 revolutions/min, for 15 minutes at +4° C.) was performed a maximum of 30 minutes after sampling. The plasma was collected and then divided into two aliquots in tubes (Nunc 1.8 ml type) as follows: • S1 aliquot: around 0.5 ml • S2 aliquot: the remainder of the plasma (more than 0.5 ml)
The pharmacokinetic analysis was performed using Phoenix software (version 6.3, Pharsight, USA). Data points indicated as “missing” were systematically ignored during the calculation and therefore have no effect on the results. A missing status is assigned and no flag symbol is used. Values were excluded if, in the judgement of the pharmacokineticist, they were deemed not to be “[…].” If outliers were suspected, they were identified using the Outlier identification procedure of STATGRAPHICS.

in vivo = settings: dog

Question: For `O=C(Nc1cc(Cl)cc(Cl)c1O)c1c(O)c(Cl)cc(Cl)c1Cl` [Oxyclozanide], which AUC(0-inf) ([1]; dog, plasma, topical or ocular, topical single 20 mg/kg Composition K, read-out: AUCinf in plasma (first value of the comparison, presumably Example 5)) is on record?
Answer: 60600 ng·h/mL

Question: What about the “concentrations of oxyclozanide in plasma after topical administration” value ([1]; topical 20 mg/kg Composition K) of the same compound?
Answer: Low concentrations

Question: And the “bioavailability after topical administration (Example 5, by comparison of AUCinf with Example 4)” value ([1]; topical 20 mg/kg Composition K, not calculated, no intravenous route in this study)?
Answer: about 12%

Question: And the Vd (in vivo; iv, 2.5 mg/kg)?
Answer: ~0.6 L/kg

Question: What about the half-life (in vivo; iv, 2.5 mg/kg) of the same compound?
Answer: 38 h

Question: And the bioavailability (in vivo; po, 5 mg/kg)?
Answer: 48%

Question: And the AUC(0-inf) (in vivo; topical or ocular, 20 mg/kg)?
Answer: 55700 ng·h/mL

Question: What about the bioavailability (in vivo; topical or ocular, 20 mg/kg) of the same compound?
Answer: 12%

Source: US20210379085A1, “HALOGENATED SALICYLANILIDES FOR TREATING THE SYMPTOMS OF DERMATITIS” (Union Therapeutics A/S, priority 2018, published 2021)
